# From paper PMC8729770, “In Vitro Evaluation of Antimicrobial Peptides from the Black Soldier Fly (Hermetia Illucens) against a Selection of Human Pathogens” (Microbiology Spectrum, 2022)
# Where two headings read alike, the source gives them in different places. Ends that are not written are not given here. Peptide text beside a SMILES is read from it.
# Columns and labels:
# S. aureus ATCC 6538 = type: cell-based, Staphylococcus aureus; conditions: for MIC S. aureus ATCC 6538: determined visually, 16 h; for MBC S. aureus ATCC 6538: wells without visual growth plated on MHA, ≥3 log reduction vs growth control
# Method: (§1) To detect antimicrobial activity of the BSF AMPs, the peptide library underwent screening against a panel of microorganisms, consisting of S. aureus ATCC 6538, E. coli ATCC 8739, P. aeruginosa ATCC 9027, C. albicans B59630, and A. fumigatus B42928. Serial dilutions of the peptides were prepared from the DMSO stock solutions in sterile demineralized water in 96-well plates using an automated liquid-handling workstation (Beckman Coulter Biomek 3000) in end volumes of 10 μL. The final in-plate concentration of DMSO was <1%. Peptide concentrations ranged from 64 μM to 0.25 μM for the first evaluation, and from 32 μM to 0.016 μM for the independent repeat. As references, doxycycline (Sigma-Aldrich; S. aureus, E. coli, P. aeruginosa), flucytosine (Sigma-Aldrich; C. albicans), and econazole (Sigma-Aldrich; A. fumigatus) were used. Suspensions of a starting inoculum of 5 × 10^3 CFU/mL (E. coli, S. aureus, C. albicans, A. fumigatus) and 5 × 10^4 CFU/mL (P. aeruginosa) were prepared in MHB (bacterial species) or RPMI medium (fungal species) and 190 μL was added to the 96-well plates. Plates were incubated for 16 h (E. coli, S. aureus, P. aeruginosa), 24 h (C. albicans), or 48 h (A. fumigatus) at 37°C. After incubation, read-out of the antimicrobial activity was performed using a resazurin assay. Then, 20 μL of a 0.01% (wt/vol) resazurin (Sigma-Aldrich) solution was added to each well and plates were incubated for 15 min (S. aureus), 30 min (E. coli), 45 min (P. aeruginosa), 4 h (C. albicans), or 17 h (A. fumigatus) to allow resazurin reduction to take place. Fluorescence was read using a microplate reader (Telix) at λexcitation = 550 nm and λemission = 590. […] MIC values were determined visually. Medium in the wells with no visual growth was plated on MHA to detect the MBC, defined as ≥3 log reduction compared with the growth control.
# E. coli ATCC 8739 = type: cell-based, Escherichia coli
# Method: as §1
# P. aeruginosa ATCC 9027 = type: cell-based, Pseudomonas aeruginosa
# Method: as §1
# [1] = repeat 1, 64-0.25 μM, determined visually, 16 h
# [2] = repeat 1, plated on MHA, ≥3 log reduction vs growth control
# [3] = repeat 2, 32-0.016 μM, determined visually, 16 h
# [4] = repeat 2, plated on MHA, ≥3 log reduction vs growth control
Molecule,"MIC S. aureus ATCC 6538 (S. aureus ATCC 6538; repeat 1, 64-0.25 μM) [µM]","MIC S. aureus ATCC 6538 (S. aureus ATCC 6538; repeat 2, 32-0.016 μM) [µM]",MIC E. coli ATCC 8739 (E. coli ATCC 8739; [1]) [µM],MBC E. coli ATCC 8739 (E. coli ATCC 8739; [2]),MIC E. coli ATCC 8739 (E. coli ATCC 8739; [3]) [µM],MBC E. coli ATCC 8739 (E. coli ATCC 8739; [4]) [µM],MIC P. aeruginosa ATCC 9027 (P. aeruginosa ATCC 9027; [1]) [µM],MBC P. aeruginosa ATCC 9027 (P. aeruginosa ATCC 9027; [2]),MIC P. aeruginosa ATCC 9027 (P. aeruginosa ATCC 9027; [3]) [µM],MBC P. aeruginosa ATCC 9027 (P. aeruginosa ATCC 9027; [4]) [µM],"MBC E. coli ATCC 8739 (E. coli ATCC 8739; ATCC 8739, 16 h) [µM]","MIC E. coli ATCC 8739 (E. coli ATCC 8739; ATCC 8739, 16 h) [µM]","MIC P. aeruginosa ATCC 9027 (P. aeruginosa ATCC 9027; ATCC 9027, 16 h) [µM]",bactericidal or bacteriostatic mechanism (S. aureus ATCC 6538; MBC determination),MBC S. aureus ATCC 6538 (S. aureus ATCC 6538; repeat 1),MBC S. aureus ATCC 6538 (S. aureus ATCC 6538; repeat 2),"MBC P. aeruginosa ATCC 9027 (P. aeruginosa ATCC 9027; ATCC 9027, 16 h) [µM]"
GWWKRVFKPVEKLGQRVRDAGIQGLEIAQQGANVLATARGGPPQQ-NH2 [Hill-Cec3],> 64.00,> 32.00,1.00,1.00 µM,0.50,32.00,4.00,16.00 µM,2.00,2.00,,,,,,,
GWWKRVFKPVEKFGQRVRDAGIQGIEIAQQGANVLATARGGPPQQ-NH2 [Hill-Cec8],> 64.00,> 32.00,,,2.00,8.00,,64.00 µM,8.00,8.00,1.00,1.00,4.00,,,,
RSLWKKLFKPVERAGQRIRDATIKGIVIAQQGANVLATIRGGPAIPPGQ-NH2 [Hill-Cec12],> 64.00,> 32.00,0.25,,2.00,8.00,,static,2.00,8.00,1.00,,1.00,,,,
GWWKRVFKPVEKFGQRVRDAGVQGIAIAQQGANVLATARGGPPQQ-NH2 [Hill-Cec2],> 64.00,> 32.00,1.00,1.00 µM,2.00,2.00,4.00,16.00 µM,2.00,2.00,,,,,,,
CC[C@H](C)[C@H](NC(=O)[C@H](CS)NC(=O)[C@H](Cc1c[nH]cn1)NC(=O)[C@H](CC(C)C)NC(=O)[C@H](C)NC(=O)[C@H](CS)NC(=O)[C@H](C)NC(=O)[C@H](C)NC(=O)[C@H](Cc1c[nH]cn1)NC(=O)CNC(=O)[C@@H](NC(=O)[C@H](CCCCN)NC(=O)[C@H](Cc1ccccc1)NC(=O)[C@@H]1CCCN1C(=O)[C@H](CO)NC(=O)[C@H](CC(C)C)NC(=O)[C@H](CC(C)C)NC(=O)[C@H](CC(=O)O)NC(=O)[C@H](CS)NC(=O)[C@@H](NC(=O)[C@H](C)N)[C@@H](C)O)C(C)C)C(=O)N[C@@H](C)C(=O)N[C@@H](CC(C)C)C(=O)NCC(=O)N[C@@H](CCCNC(=N)N)C(=O)N[C@@H](CCCNC(=N)N)C(=O)NCC(=O)NCC(=O)N[C@@H](Cc1c[nH]c2ccccc12)C(=O)N[C@@H](CS)C(=O)N[C@@H](CC(=O)O)C(=O)NCC(=O)N[C@@H](CCCNC(=N)N)C(=O)N[C@@H](C)C(=O)N[C@H](C(=O)N[C@@H](CS)C(=O)N[C@@H](CC(N)=O)C(=O)N[C@@H](CS)C(=O)N[C@@H](CCCNC(=N)N)C(=O)N[C@@H](CCCNC(=N)N)C(=O)O)C(C)C [Hill-Def4] (H-ATCDLLSPFKVGHAACALHCIALGRRGGWCDGRAVCNCRR-OH; N-terminus and C-terminus assumed),1.00,8.00,> 64.00,,> 32.00,,> 64.00,,> 32.00,,,,,bacteriostatic,static,static,
CC[C@H](C)[C@H](NC(=O)[C@H](CS)NC(=O)[C@H](Cc1c[nH]cn1)NC(=O)[C@H](C)NC(=O)[C@H](C)NC(=O)[C@H](CS)NC(=O)[C@H](C)NC(=O)[C@H](C)NC(=O)[C@H](Cc1c[nH]cn1)NC(=O)CNC(=O)[C@@H](NC(=O)[C@H](CCCCN)NC(=O)[C@H](Cc1ccccc1)NC(=O)[C@@H]1CCCN1C(=O)[C@H](CO)NC(=O)[C@H](CC(C)C)NC(=O)[C@H](CC(C)C)NC(=O)[C@H](CC(=O)O)NC(=O)[C@H](CS)NC(=O)[C@@H](NC(=O)[C@H](C)N)[C@@H](C)O)C(C)C)C(=O)N[C@@H](C)C(=O)N[C@@H](CCCNC(=N)N)C(=O)NCC(=O)N[C@@H](CCCCN)C(=O)N[C@@H](CCCNC(=N)N)C(=O)NCC(=O)NCC(=O)N[C@@H](Cc1c[nH]c2ccccc12)C(=O)N[C@@H](CS)C(=O)N[C@@H](CC(=O)O)C(=O)N[C@@H](CCCCN)C(=O)N[C@@H](CCCNC(=N)N)C(=O)N[C@@H](C)C(=O)N[C@H](C(=O)N[C@@H](CS)C(=O)N[C@@H](CC(N)=O)C(=O)N[C@@H](CS)C(=O)N[C@@H](CCCNC(=N)N)C(=O)N[C@@H](CCCCN)C(=O)O)C(C)C [Hill-Def2a] (H-ATCDLLSPFKVGHAACAAHCIARGKRGGWCDKRAVCNCRK-OH; N-terminus and C-terminus assumed),0.25,2.00,> 64.00,,> 32.00,,> 64.00,,> 32.00,,,,,,static,static,
GWWKRVFKPVEKLGQRVRDAGIQGLEIAQQGANVLATVRGGPPQQ-NH2 [Hill-Cec9],> 64.00,> 32.00,,,,,,static,2.00,2.00,,,1.00,,,,
SWFKKVFKPVEKVGQRVRDAGIQGVAIAQQGANVLATARGGPPH-NH2 [Hill-Cec5],,,,,,,,,,,0.50,,,,,,32.00
GWWKRVFKPVERLGQRVRDAGIQGLQIAQQGANVLATVRGGPPQQ-NH2 [Hill-Cec4],> 64.00,> 32.00,1.00,static,2.00,2.00,1.00,16.00 µM,2.00,2.00,,,,,,,
KSWWKKVFKPVERAGQRIRDASIKGLAVAQQGANVLSTIRGGPPVVAPPPQV-NH2 [Hill-Cec13],> 64.00,> 32.00,,,,,,64.00 µM,2.00,2.00,,,1.00,,,,
